Where a name gives a salt, the structure may show the parent alone.
Tests used:
Format in all cases: biochemical
Settings in all cases: Caliper assay at 1 mM ATP
[1] = target: JAK1 (Homo sapiens (Human), UniProt P23458); experiment: JAK Caliper Enzyme Assay at 1 mM ATP (JAK1)
Description: (§1) JAK Caliper Enzyme Assay at 1 mM ATP
(§2) Test article was solubilized in dimethyl sulfoxide (DMSO) to a stock concentration of 30 mM. An 11-point half log dilution series was created in DMSO with a top concentration of 600 μM. […] The compound plates were diluted 1 to 60 resulting in a top final assay compound concentration of 10 μM and a 2% DMSO concentration.
(§3) Test article and assay controls were added to a 384-well plate. Reaction mixtures contained 20 mM HEPES, pH 7.4, 10 mM magnesium chloride, 0.01% bovine serum albumin (BSA), 0.0005% Tween 20, 1 mM ATP and 1 μM peptide substrate. […] Enzyme concentrations and incubation times were optimized for each new enzyme preps and were modified slightly over time to ensure 20%-30% phosphorylation. The assays were stopped with a final concentration of 10 mM EDTA, 0.1% Coating Reagent and 100 mM HEPES, pH=7.4. The assay plates were placed on a Caliper Life Science Lab Chip 3000 (LC3000) instrument, and each well was sampled using appropriate separation conditions to measure the unphosphorylated and phosphorylated peptide.

[2] = target: TYK2 (Homo sapiens (Human), UniProt P29597); experiment: JAK Caliper Enzyme Assay at 1 mM ATP (TYK2)
Description: as §1, §2, §3

[3] = target: JAK3 (Homo sapiens (Human), UniProt P52333); experiment: JAK Caliper Enzyme Assay at 1 mM ATP (JAK3)
Description: as §1, §2, §3

[4] = target: JAK2 (Homo sapiens (Human), UniProt O60674); experiment: JAK Caliper Enzyme Assay at 1 mM ATP (JAK2)
Description: as §1, §2, §3

Chain of TYK2 (P29597 whole entry, species assumed): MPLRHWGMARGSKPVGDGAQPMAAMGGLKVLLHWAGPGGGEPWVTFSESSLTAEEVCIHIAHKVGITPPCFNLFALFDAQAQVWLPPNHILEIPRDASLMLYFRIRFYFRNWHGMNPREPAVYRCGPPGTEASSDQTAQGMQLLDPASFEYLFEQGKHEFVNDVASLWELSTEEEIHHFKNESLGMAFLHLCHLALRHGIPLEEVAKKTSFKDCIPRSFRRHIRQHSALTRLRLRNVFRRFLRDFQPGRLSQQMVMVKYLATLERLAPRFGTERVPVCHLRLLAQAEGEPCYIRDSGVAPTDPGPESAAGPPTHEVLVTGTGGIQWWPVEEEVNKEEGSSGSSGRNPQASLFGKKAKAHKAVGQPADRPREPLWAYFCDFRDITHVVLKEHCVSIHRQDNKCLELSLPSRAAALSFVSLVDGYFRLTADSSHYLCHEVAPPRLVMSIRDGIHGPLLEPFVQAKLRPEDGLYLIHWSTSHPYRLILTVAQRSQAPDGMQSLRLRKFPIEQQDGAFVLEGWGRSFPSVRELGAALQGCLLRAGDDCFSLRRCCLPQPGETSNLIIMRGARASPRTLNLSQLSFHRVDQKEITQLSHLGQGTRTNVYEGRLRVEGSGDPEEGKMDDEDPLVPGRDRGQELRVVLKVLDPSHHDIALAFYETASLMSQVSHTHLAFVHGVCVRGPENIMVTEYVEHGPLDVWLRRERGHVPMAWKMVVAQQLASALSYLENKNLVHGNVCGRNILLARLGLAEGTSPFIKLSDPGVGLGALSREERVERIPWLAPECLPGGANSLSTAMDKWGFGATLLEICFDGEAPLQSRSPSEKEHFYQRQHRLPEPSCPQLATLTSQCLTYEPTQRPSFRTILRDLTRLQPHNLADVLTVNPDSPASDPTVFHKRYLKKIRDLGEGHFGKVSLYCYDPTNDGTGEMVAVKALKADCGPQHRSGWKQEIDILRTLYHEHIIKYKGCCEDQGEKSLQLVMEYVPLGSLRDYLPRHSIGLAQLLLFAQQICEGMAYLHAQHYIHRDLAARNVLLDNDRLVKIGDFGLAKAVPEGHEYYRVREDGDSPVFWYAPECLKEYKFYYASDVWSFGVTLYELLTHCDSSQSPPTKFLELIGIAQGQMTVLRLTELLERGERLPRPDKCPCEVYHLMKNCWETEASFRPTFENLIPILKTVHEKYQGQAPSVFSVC
Chain of JAK2 (O60674 whole entry, species assumed): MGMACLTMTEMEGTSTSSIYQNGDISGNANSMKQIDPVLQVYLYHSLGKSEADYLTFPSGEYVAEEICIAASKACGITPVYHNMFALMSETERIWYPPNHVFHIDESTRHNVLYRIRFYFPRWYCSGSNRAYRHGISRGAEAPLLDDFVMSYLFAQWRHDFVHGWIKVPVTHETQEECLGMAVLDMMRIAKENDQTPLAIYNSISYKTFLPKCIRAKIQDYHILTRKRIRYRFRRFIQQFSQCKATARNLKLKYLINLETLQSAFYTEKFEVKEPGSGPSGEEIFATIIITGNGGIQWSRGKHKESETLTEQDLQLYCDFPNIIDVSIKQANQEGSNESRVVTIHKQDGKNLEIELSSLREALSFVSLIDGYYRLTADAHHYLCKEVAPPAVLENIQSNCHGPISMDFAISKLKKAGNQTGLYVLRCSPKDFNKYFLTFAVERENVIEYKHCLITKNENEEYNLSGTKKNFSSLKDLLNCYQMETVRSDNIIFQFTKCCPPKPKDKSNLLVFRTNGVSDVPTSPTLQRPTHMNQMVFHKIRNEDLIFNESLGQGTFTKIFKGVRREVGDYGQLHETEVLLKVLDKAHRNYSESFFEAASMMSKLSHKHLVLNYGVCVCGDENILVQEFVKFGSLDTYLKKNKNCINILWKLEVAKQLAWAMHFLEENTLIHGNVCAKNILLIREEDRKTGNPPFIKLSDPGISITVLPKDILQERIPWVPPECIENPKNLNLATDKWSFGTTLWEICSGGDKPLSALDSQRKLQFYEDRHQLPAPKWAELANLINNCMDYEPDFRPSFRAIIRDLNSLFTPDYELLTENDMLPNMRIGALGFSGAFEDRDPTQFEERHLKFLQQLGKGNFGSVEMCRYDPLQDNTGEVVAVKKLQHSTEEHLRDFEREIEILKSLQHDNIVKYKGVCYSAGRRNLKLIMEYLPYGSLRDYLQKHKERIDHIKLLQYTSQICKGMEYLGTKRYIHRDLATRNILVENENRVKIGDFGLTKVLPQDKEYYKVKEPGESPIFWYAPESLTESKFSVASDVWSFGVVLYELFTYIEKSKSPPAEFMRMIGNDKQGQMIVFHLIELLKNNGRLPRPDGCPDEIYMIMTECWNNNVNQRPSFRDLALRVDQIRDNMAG
Chain of JAK3 (P52333 whole entry, species assumed): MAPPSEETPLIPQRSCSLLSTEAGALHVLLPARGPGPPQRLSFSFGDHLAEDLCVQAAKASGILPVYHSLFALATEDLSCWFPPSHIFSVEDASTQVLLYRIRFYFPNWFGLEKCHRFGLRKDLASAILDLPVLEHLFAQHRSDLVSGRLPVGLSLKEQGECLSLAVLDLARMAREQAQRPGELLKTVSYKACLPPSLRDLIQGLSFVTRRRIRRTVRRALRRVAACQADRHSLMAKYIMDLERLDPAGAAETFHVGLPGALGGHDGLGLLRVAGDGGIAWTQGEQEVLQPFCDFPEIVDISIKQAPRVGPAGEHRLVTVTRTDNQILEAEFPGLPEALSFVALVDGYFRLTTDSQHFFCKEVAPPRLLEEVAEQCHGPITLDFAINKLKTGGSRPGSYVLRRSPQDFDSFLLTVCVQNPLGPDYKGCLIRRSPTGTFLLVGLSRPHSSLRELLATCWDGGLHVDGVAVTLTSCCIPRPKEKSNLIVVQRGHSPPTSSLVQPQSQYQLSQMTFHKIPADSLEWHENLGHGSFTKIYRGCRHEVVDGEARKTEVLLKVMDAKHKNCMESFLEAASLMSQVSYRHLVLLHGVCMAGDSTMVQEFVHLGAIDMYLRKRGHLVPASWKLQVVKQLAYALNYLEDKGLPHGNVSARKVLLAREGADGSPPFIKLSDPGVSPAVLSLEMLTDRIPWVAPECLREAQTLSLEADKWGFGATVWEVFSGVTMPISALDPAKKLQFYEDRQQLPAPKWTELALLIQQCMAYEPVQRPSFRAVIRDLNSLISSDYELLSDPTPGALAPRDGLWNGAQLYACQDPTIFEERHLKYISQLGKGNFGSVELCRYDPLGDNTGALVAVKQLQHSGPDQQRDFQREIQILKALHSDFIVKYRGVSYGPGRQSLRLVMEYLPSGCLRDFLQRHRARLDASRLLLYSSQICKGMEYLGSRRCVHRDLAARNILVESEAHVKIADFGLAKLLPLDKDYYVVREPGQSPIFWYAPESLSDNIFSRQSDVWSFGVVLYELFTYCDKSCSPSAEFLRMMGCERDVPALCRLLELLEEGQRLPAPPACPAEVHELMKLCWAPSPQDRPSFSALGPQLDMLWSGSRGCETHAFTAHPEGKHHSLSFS
Chain of JAK1 (P23458 whole entry, species assumed): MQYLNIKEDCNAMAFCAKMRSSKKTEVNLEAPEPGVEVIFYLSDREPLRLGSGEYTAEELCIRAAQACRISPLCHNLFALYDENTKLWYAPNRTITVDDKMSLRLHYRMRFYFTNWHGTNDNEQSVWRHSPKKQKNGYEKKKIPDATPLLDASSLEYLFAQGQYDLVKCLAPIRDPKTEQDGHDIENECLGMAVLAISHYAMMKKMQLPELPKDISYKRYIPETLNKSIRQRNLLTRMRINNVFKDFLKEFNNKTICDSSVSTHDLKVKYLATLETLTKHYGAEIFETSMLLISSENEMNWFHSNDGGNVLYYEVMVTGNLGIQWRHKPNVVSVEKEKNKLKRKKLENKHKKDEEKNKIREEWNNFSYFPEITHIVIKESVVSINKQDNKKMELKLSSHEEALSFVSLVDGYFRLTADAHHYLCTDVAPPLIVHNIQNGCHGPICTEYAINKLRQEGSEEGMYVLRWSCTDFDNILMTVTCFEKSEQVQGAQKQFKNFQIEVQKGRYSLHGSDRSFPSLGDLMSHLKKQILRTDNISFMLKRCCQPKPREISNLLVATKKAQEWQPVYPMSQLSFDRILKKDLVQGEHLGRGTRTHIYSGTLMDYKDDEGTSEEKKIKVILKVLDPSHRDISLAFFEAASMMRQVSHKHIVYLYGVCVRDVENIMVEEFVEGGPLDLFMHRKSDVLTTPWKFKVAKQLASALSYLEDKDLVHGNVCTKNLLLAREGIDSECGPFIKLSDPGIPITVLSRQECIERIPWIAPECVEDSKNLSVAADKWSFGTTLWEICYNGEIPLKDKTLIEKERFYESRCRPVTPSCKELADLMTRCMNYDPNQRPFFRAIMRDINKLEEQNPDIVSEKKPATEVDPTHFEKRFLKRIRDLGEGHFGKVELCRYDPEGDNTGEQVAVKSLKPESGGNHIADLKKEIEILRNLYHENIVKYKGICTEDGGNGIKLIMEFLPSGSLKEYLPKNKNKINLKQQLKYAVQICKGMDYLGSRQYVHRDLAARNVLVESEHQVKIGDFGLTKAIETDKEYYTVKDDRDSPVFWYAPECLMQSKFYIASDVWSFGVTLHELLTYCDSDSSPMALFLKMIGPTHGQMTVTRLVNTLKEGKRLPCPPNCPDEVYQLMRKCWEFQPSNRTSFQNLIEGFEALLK

| Compound | IC50 [1] [nM] | IC50 [2] [nM] | IC50 [3] [nM] | IC50 [4] [nM] |
| --- | --- | --- | --- | --- |
| CCc1cc(O)c(F)cc1-c1cc2[nH]nc(C(=O)NC)c2c(NCCc2ccc(O)cc2)n1 [Example 4, 6-(2-ethyl-5-fluoro-4-hydroxyphenyl)-4-{[2-(4-hydroxyphenyl)ethyl]amino}-N-methyl-1H-pyrazolo[4,3-c]pyridine-3-carboxamide] | 1.7 | 15.3 | 26.6 |  |
| CCc1cc(O)c(F)cc1-c1cc2[nH]nc(C(=O)NC)c2c(NCc2ccc(O)cc2N(C)S(C)(=O)=O)n1 [Example 29, 6-(2-Ethyl-5-fluoro-4-hydroxyphenyl)-4-({4-hydroxy-2-[methyl(methylsulfonyl)amino]benzyl}amino)-N-methyl-1H-pyrazolo[4,3-c]pyridine-3-carboxamide] | 1.5 | 19 | 33.2 |  |
| CNC(=O)c1n[nH]c2cc(-c3cc(F)c(O)cc3C3CC3)nc(NCc3ccccc3N(C)S(C)(=O)=O)c12 [Example 37, 6-(2-cyclopropyl-5-fluoro-4-hydroxyphenyl)-N-methyl-4-({2-[methyl(methyl-sulfonyl)amino]benzyl}amino)-1H-pyrazolo[4,3-c]pyridine-3-carboxamide] | 5 | 169 | 52 |  |
| CNC(=O)c1n[nH]c2cc(-c3cc(F)c(O)cc3CC(F)(F)F)nc(NCc3nccnc3N(C)S(=O)(=O)c3ccccc3)c12 [Example 44, 6-[5-fluoro-4-hydroxy-2-(2,2,2-trifluoroethyl)phenyl]-N-methyl-4-[({3-[methyl(phenylsulfonyl)amino]pyrazin-2-yl}methyl)amino]-1H-pyrazolo[4,3-c]pyridine-3-carboxamide] | 25.8 | 999 | 293 |  |
| CNC(=O)c1n[nH]c2cc(-c3cc(F)c(O)cc3C3CC3)nc(NCc3cccnc3N(C)S(C)(=O)=O)c12 [Example 49, 6-(2-cyclopropyl-5-fluoro-4-hydroxyphenyl)-N-methyl-4-[({2-[methyl(methylsulfonyl)amino]pyridin-3-yl}methyl)amino]-1H-pyrazolo[4,3-c]pyridine-3-carboxamide] | 78 |  | 248 | 181 |
| CNC(=O)c1n[nH]c2cc(-c3cc(F)c(O)cc3CC(F)(F)F)nc(NCc3cccnc3N(C)S(C)(=O)=O)c12 [Example 53, 6-[5-fluoro-4-hydroxy-2-(2,2,2-trifluoroethyl)phenyl]-N-methyl-4-[({2-[methyl(methylsulfonyl)amino]pyridin-3-yl}methyl)amino]-1H-pyrazolo[4,3-c]pyridine-3-carboxamide] | 9.7 | 243 | 102 |  |
| CCN(c1ccccc1CNc1nc(-c2cc(F)c(O)cc2CC(F)(F)F)cc2[nH]nc(C(N)=O)c12)S(=O)(=O)CC [Example 82, 4-((2-(N-ethylethylsulfonamido)benzyl)amino)-6-(5-fluoro-4-hydroxy-2-(2,2,2-trifluoroethyl)phenyl)-1H-pyrazolo[4,3-c]pyridine-3-carboxamide] | 13.7 | 121 | 313 |  |
| CS(=O)(=O)N(CCO)c1ccccc1CNc1nc(-c2cc(F)c(O)cc2CC(F)(F)F)nc2[nH]nc(C(N)=O)c12 [Example 101, 6-(5-fluoro-4-hydroxy-2-(2,2,2-trifluoroethyl)phenyl)-4-((2-(N-(2-hydroxyethyl)methylsulfonamido)benzyl)amino)-1H-pyrazolo[3,4-d]pyrimidine-3-carboxamide] | 10.5 |  | 51.1 |  |
| CCc1cc(O)ccc1-c1cc2[nH]ncc2c(N2CC(Oc3cc(C#N)ccc3Cl)C2)n1 [Example 120, 4-chloro-3-({1-[6-(2-ethyl-4-hydroxyphenyl)-1H-pyrazolo[4,3-c]pyridin-4-yl]azetidin-3-yl}oxy)benzonitrile formate] | 10.8 |  | 89.2 | 128 |
| CCc1cc(O)ccc1-c1cc2[nH]ncc2c(NCc2ccccc2N(C)S(C)(=O)=O)n1 [Example 125, N-[2-({[6-(2-Ethyl-4-hydroxyphenyl)-1H-pyrazolo[4,3-c]pyridin-4-yl]amino}methyl)phenyl]-N-methylmethanesulfonamide hydrochloride] | 0.2 | 5.6 | 4.4 |  |
| Oc1cc(CC(F)(F)F)c(-c2nc(NCC3CC3)c3cn[nH]c3n2)cc1F [Example 151, 4-{4-[(cyclopropylmethyl)-amino]-1H-pyrazolo[3,4-d]pyrimidin-6-yl}-2-fluoro-5-(2,2,2-trifluoroethyl)phenol] | 33.9 | 2980 | 125 |  |
| CCCCNc1nc(-c2cc(F)c(O)cc2CC(F)(F)F)nc2[nH]ncc12 [Example 154, 4-[4-(butylamino)-1H-pyrazolo[3,4-d]pyrimidin-6-yl]-2-fluoro-5-(2,2,2-trifluoroethyl)phenol] | 77.6 | 5140 | 228 |  |
| N-benzyl-2-[6-(2-ethyl-4-hydroxyphenyl)-1H-pyrazolo[4,3-c]pyridin-4-yl]-1,2,3,4-tetrahydroiso-quinoline-5-carboxamide formate [Example 117] |  | 425 | 41.6 |  |

Other lines, results leading:

| IC50 [1] [nM] | IC50 [2] [nM] | IC50 [3] [nM] | IC50 [4] [nM] | Compound |
| --- | --- | --- | --- | --- |
| 25.3 | 233 | 534 |  | CN(c1ccc(O)cc1CNc1nc(-c2cc(F)c(O)cc2CC(F)(F)F)cc2[nH]nc(C(N)=O)c12)S(=O)(=O)c1ccccc1 [Example 42, 6-[5-fluoro-4-hydroxy-2-(2,2,2-trifluoroethyl)phenyl]-4-({5-hydroxy-2-[methyl(phenylsulfonyl)-amino]benzyl}amino)-1H-pyrazolo[4,3-c]pyridine-3-carboxamide] |
| 67.6 |  | 148 | 188 | CNC(=O)c1n[nH]c2cc(-c3cc(F)c(O)cc3CC(F)(F)F)nc(NCc3cnccc3N(C)S(C)(=O)=O)c12 [Example 48, 6-[5-fluoro-4-hydroxy-2-(2,2,2-trifluoroethyl)phenyl]-N-methyl-4-[({4-[methyl(methylsulfonyl)amino]pyridin-3-yl}methyl)amino]-1H-pyrazolo[4,3-c]pyridine-3-carboxamide] |
| 3.3 | 153 | 36.9 |  | CNC(=O)c1n[nH]c2cc(-c3cc(F)c(O)cc3CC(F)(F)F)nc(NCc3ccccc3CS(N)(=O)=O)c12 [Example 64, 6-[5-fluoro-4-hydroxy-2-(2,2,2-trifluoroethyl)phenyl]-N-methyl-4-{[2-(sulfamoylmethyl)benzyl]amino}-1H-pyrazolo[4,3-c]pyridine-3-carboxamide] |
| 4.7 | 298 | 103 |  | Cc1ccc(N(C)S(C)(=O)=O)c(CNc2nc(-c3cc(F)c(O)cc3CC(F)(F)F)cc3[nH]nc(C(N)=O)c23)c1 [Example 81, 6-[5-fluoro-4-hydroxy-2-(2,2,2-trifluoroethyl)phenyl]-4-({5-methyl-2-[methyl(methylsulfonyl)-amino]benzyl}amino)-1H-pyrazolo[4,3-c]pyridine-3-carboxamide] |
| 4.9 | 600 | 39.6 |  | CN(c1ccccc1CNc1nc(-c2cc(F)c(O)cc2CC(F)(F)F)nc2[nH]nc(C(N)=O)c12)S(C)(=O)=O [Example 98, 6-(5-Fluoro-4-hydroxy-2-(2,2,2-trifluoroethyl)phenyl)-4-((2-(N-methylmethylsulfonamido)benzyl)amino)-1H-pyrazolo[3,4-d]pyrimidine-3-carboxamide] |
| 11.6 | 56.6 | 180 |  | CCc1cc(O)c(F)cc1-c1cc2[nH]ncc2c(N(CCc2ccc(OC)c(OC)c2)Cc2ccccc2N(C)S(C)(=O)=O)n1 [Example 129, N-[2-({[2-(3,4-dimethoxyphenyl)ethyl][6-(2-ethyl-5-fluoro-4-hydroxyphenyl)-1H-pyrazolo[4,3-c]pyridin-4-yl]amino}methyl)phenyl]-N-methylmethanesulfonamide hydrochloride] |
|  | 1990 | 27.5 | 16.7 | CCCCN(c1ccccc1CNc1nc(-c2cc(F)c(O)cc2CC)cc2[nH]ncc12)S(C)(=O)=O [Example 139] |
| 18.1 |  | 131 | 53.5 | CCc1cc(O)c(F)cc1-c1cc2[nH]ncc2c(N(CCN2CCOCC2)Cc2ccccc2N(C)S(C)(=O)=O)n1 [Example 140, N-[2-({[6-(2-ethyl-5-fluoro-4-hydroxyphenyl)-1H-pyrazolo[4,3-c]pyridin-4-yl][2-(morpholin-4-yl)ethyl]amino}methyl)phenyl]-N-methylmethanesulfonamide] |
| 41.6 |  | 157 | 228 | Oc1cc(CC(F)(F)F)c(-c2nc(NCCC3CC3)c3cn[nH]c3n2)cc1F [Example 152, 4-{4-[(2-cyclopropylethyl)amino]-1H-pyrazolo[3,4-d]pyrimidin-6-yl}-2-fluoro-5-(2,2,2-trifluoroethyl)phenol] |
| 4.1 | 310 | 47.4 |  | CN(c1ccc(O)cc1CNc1nc(-c2cc(F)c(O)cc2CC(F)(F)F)nc2[nH]nc(-c3nnc(C4CCN(C(N)=O)CC4)[nH]3)c12)S(C)(=O)=O [Example 167, 4-(5-{6-[5-Fluoro-4-hydroxy-2-(2,2,2-trifluoroethyl)phenyl]-4-({5-hydroxy-2-[methyl(methylsulfonyl)amino]benzyl}amino)-1H-pyrazolo[3,4-d]pyrimidin-3-yl}-4H-1,2,4-triazol-3-yl)piperidine-1-carboxamide] |

Source: patent US9518052B2, “Pyrazolopyridines and pyrazolopyrimidines” (Pfizer Inc., priority 2014, dated 2016)
